{"source": "patent US20080280953A1", "about": "“Agents Used for the Treatment of Seeds” (Bayer Cropscience AG, priority 2004, published 2008)", "format_in_all_cases": "in vivo", "key": {"[1]": {"tested_on": "white fly (Bemisia tabaci), normal sensitive strain", "test": "Bemisia tabaci test (normal sensitive strain), spraying of infested cotton plants", "settings": "100 ppm, spray on cotton plants", "procedure": "(§1) To prepare a suitable active compound preparation 1 part by weight of the active compound is mixed with the given amount of solvent and emulsifier and the concentrate is diluted to the desired concentration with water containing emulsifier.\nCotton plants (Gossypium hirsutum) that are infested with eggs, larvae and pupae of the white fly (Bemisia tabaci) are treated by, spraying with the active compound preparation at the desired concentration.\n(§2) After the desired time the death rate in % is determined. Here 100% means that all animals were killed; 0% means that no animals were killed."}, "[2]": {"tested_on": "white fly (Bemisia tabaci, resistant strain)", "test": "Bemisia tabaci test (resistant strain), cotton leaf dip", "settings": "1000 ppm", "procedure": "as §1\nLeaf sections of the cotton plant (Gossypium hirsutum) are treated by dipping in the active compound preparation at the desired concentration and after drying of the coating are infected with adults of the white fly (Bemisia tabaci, resistant strain).\nas §2"}, "[3]": {"tested_on": "leafminer fly (Liriomyza trifolii) larvae", "test": "Liriomyza trifolii test, spraying of kidney bean plants", "settings": "100 ppm, spray on kidney bean plants", "procedure": "as §1\nKidney bean plants (Phaseolus vulgaris) that are infected with the larvae of the leafminer fly (Liriomyza trifolii) are treated by spraying with the active compound mixture at the desired concentration.\nAfter the desired time the activity in % is determined."}, "[4]": {"tested_on": "mixed thrips population (Frankliniella occidentalis)", "test": "Frankliniella occidentalis test, spraying of cotton plants", "settings": "100 ppm, spray on cotton plants", "procedure": "as §1\nCotton plants (Gossypium hirsutum) are treated by spraying with the active compound preparation at the desired concentration and infected with a mixed thrips population (Frankliniella occidentalis).\nAfter the desired time the activity in % is determined. Here 100% means that all thrips were killed; 0% means that no thrips were killed."}, "[5]": {"tested_on": "larvae of the Colorado beetle (Leptinotarsa decemlineata)", "test": "Leptinotarsa decemlineata larvae test, spraying of potato leaves", "settings": "60 g ai/ha, spray on potato leaves", "procedure": "as §1\nLeaves of potato plants (Solanum tuberosum) that are infested with the larvae of the Colorado beetle (Leptinotarsa decemlineata) are treated by spraying with the active compound preparation at the desired concentration.\nAfter the desired time the activity in % is determined. Here 100% means that all beetle larvae were killed; 0% means that no beetle larvae were killed."}, "[6]": {"tested_on": "larvae of the corn root worm (Diabrotica balteata)", "test": "Diabrotica balteata larvae test (soil application)", "settings": "8 ppm in soil, maize", "procedure": "(§3) To prepare a suitable active compound preparation 1 part by weight of the active compound is mixed with the given amount of solvent and emulsifier and the concentrate is diluted to the desired concentration with water.\nThe active compound mixture was mixed with soil. The concentration given refers to amount of active compound per volume unit of earth (mg/l=ppm). Pots are filled with the treated earth and planted with 5 maize seeds per pot. 3 days after seeding larvae of the corn root worm (Diabrotica balteata) were placed in the treated soil.\nAfter the desired time the death rate in % is determined. The level of activity is determined by the number of emerging plants"}, "[7]": {"tested_on": "cotton aphid (Aphis gossypii)", "test": "Aphis gossypii test (seed application)", "settings": "4 g ai/ha, cotton seed treatment", "procedure": "as §3\nCotton seeds (Gossypium hirsutum) are treated with the active compound preparation and sown into soil. After ca. 2 week the cotton plants are infected with the cotton aphid (Aphis gossypii). After the desired time the death rate in % is determined. Here 100% means that all aphids were killed; 0% means that no aphids were killed."}, "[8]": {"tested_on": "black bean aphid (Aphis fabae)", "test": "Aphis fabae test (seed application), Example J", "settings": "90 g ai/unit (100,000 seeds), sugar beet seed treatment", "procedure": "as §3\nSugar beet seed (Beta vulgaris) is treated with the active compound preparation and sown into soil. After ca. 4 week the beet plants are infected with the black bean aphid (Aphis fabae).\n(§4) After the desired time the death rate in % is determined. Here 100% means that all aphids were killed; 0% means that no aphids were killed."}, "[9]": {"tested_on": "caterpillars of the fall army worm (Spodoptera frugiperda)", "test": "Spodoptera frugiperda test (spray treatment)", "settings": "500 g/ha; spray on maize leaf sections; after 7 d", "procedure": "as §1\nMaize leaf sections (Zea mays) are sprayed with an active compound preparation at the desired concentration and after drying treated with caterpillars of the fall army worm (Spodoptera frugiperda).\nAfter the desired time the activity in % is determined. Here 100% means that all caterpillars were killed; 0% means that no caterpillars were killed."}, "[10]": {"tested_on": "adult Ctenocephalides felis, strain \"Georgi\"", "test": "Test with cat fleas/oral administration", "settings": "100 ppm in citrated bovine blood", "procedure": "To prepare a suitable formulation a suitable active compound solution was prepared from 10 mg active compound with 0.5 ml DMSO. 10 μl of this formulation was added to 2 ml citrated bovine blood and stirred.\n20 fasting adult fleas (Ctenocephalides felis, strain “Georgi”) were placed in a chamber (Ø5 cm) that is closed with cheese cloth at the top and bottom. A metal cylinder the underside of which is closed with Parafilm is placed on the chamber. The cylinder contains the 2 ml blood-active compound formulation which can be consumed by the fleas through the Parafilm membrane.\nWhilst the blood is warmed to 37° C. the region of the flea chamber is at room temperature. Controls were carried out with the same volume of DMSO without compound addition.\nAfter the desired time the death rate in % is determined. Here 100% means that all fleas were killed; 0% means that no fleas were killed."}, "[11]": {"tested_on": "adult Musca domestica, strain WHO(N), sensitive", "test": "Test with flies", "settings": "100 ppm; after 48 hours", "procedure": "10 mg of the active compound are dissolved in 0.5 ml dimethylsulphoxide, lower concentrations are prepared by dilution with water.\n0.2 ml of this active compound preparation is pipetted onto a sponge (ca. Ø1.5 cm) that has been wetted with 0.8 ml sugar solution. The sponge and 10 test animals are transferred to a dish (4×4 cm, h 2 cm) and covered.\nAfter 48 hours the activity of the active compound preparation is determined. Here 100% means that all flies were killed; 0% means that no flies were killed."}, "[12]": {"tested_on": "caterpillars of the fall army worm (Spodoptera frugiperda)", "test": "Spodoptera frugiperda test, treated soil (Example A1)", "settings": "4 ppm in soil, cotton plant", "procedure": "as §3\nThe active compound preparation is mixed with earth. The concentration given relates to the amount of active compound per unit volume soil (mg/l=ppm). The treated earth is filled into pots and planted with a cotton plant (Gossypium hirsutum). After a week infection is carried out with caterpillars of the fall army worm (Spodoptera frugiperda).\nAfter the desired time the activity in % is determined. Here 100% means that no eating damage is visible, 0% means that eating damage on the treated plants corresponds to that of the controls."}, "[13]": {"tested_on": "horse chestnut scale (Pulvinaria regalis)", "test": "Pulvinaria regalis test, preparation poured onto chestnut trees (Example C1)", "settings": "10 mg per plant, poured on", "procedure": "as §3\nThe active compound preparation was poured onto chestnut trees (Castanea vesca). The concentration given relates to the amount of active compound per plant. After a defined time infection was carried out with horse chestnut scale (Pulvinaria regalis).\nas §2"}, "[14]": {"tested_on": "black bean aphid (Aphis fabae)", "test": "Aphis fabae test (seed application), Example D1", "settings": "90 g per unit (100,000 seeds), sugar beet seed", "procedure": "as §3\nSugar beet seed (Beta vulgaris) is treated with the active compound preparation and sown into the earth. After ca. 4 weeks the beet plants are infected with the black bean aphid (Aphis fabae).\nas §4"}}, "note": "Where “and” joins values, the source holds several entries; their conditions need not be identical. Equal entries are not always repeated."}
{"smiles": "CN(Cc1ccc(Cl)nc1)C1=CC(=O)OC1", "note": "[Compound 84]", "values": [{"measurement": "Death rate in % after 14 d", "setting": "[1]", "result": 100, "unit": "%"}, {"measurement": "Death rate in % after 3 d", "setting": "[2]", "result": 78, "unit": "%"}, {"measurement": "Activity in % after 7 d", "setting": "[3]", "result": "55% and 46%"}, {"measurement": "Activity in % after 14 d", "setting": "[4]", "result": 99, "unit": "%"}, {"measurement": "Activity in % after 6 d", "setting": "[5]", "result": 100, "unit": "%"}, {"measurement": "Activity in % after 4 d", "setting": "[6]", "result": 100, "unit": "%"}, {"measurement": "Activity in % after 7 d", "setting": "[7]", "result": 100, "unit": "%"}, {"measurement": "Activity in % after 7 d", "setting": "[8]", "result": 100, "unit": "%"}, {"measurement": "Death rate in % after 7 d", "setting": "[9]", "result": 100, "unit": "%"}, {"measurement": "death rate after 2 days", "setting": "[10]", "result": 100, "unit": "%"}, {"measurement": "activity", "setting": "[11]", "result": 80, "unit": "%"}, {"measurement": "activity (eating damage) after 7 days", "setting": "[12]", "result": 98, "unit": "%"}, {"measurement": "death rate after 30 days", "setting": "[13]", "result": 100, "unit": "%"}]}
{"smiles": "O=C1C=C(N(Cc2ccc(Cl)nc2)C2CC2)CO1", "note": "[Compound 88]", "values": [{"measurement": "Activity in % after 14 d", "setting": "[4]", "result": 99, "unit": "%"}, {"measurement": "Activity in % after 6 d", "setting": "[5]", "result": 100, "unit": "%"}, {"measurement": "Activity in % after 4 d", "setting": "[6]", "result": 90, "unit": "%"}, {"measurement": "Activity in % after 7 d", "setting": "[7]", "result": 100, "unit": "%"}, {"measurement": "Death rate in % after 7 d", "setting": "[9]", "result": 100, "unit": "%"}, {"measurement": "death rate after 7 days", "setting": "[14]", "result": 100, "unit": "%"}]}
